According to PubChem BioAssay AID2060507 (Molecular Pharmacology Branch, DTP, NCI, 2025):

Tested on: 519858-162-T-J1-PDC complex spheroid viability
Assay: Anticancer human tumor 519858-162-T-J1-PDC patient-derived colon adenocarcinoma cell line growth inhibition [GQUAD]
Settings: for IC50: curve of first compound; for viability, T/C: stronger effect = lower value
Outline: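 Multi-cell-type spheroids of tumor cells with HUVEC and mesenchymal stem cells, treated with drug combinations. Concentrations descend in half-log steps from near clinical Cmax, or from 10 microM where Cmax is unknown; viability read-out.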

[1] = second compound 0.0316 µM, first compound 0.0316 µM
[2] = second compound 0.0316 µM, first compound 0.1 µM
[3] = second compound 0.0316 µM, first compound 0.316 µM
[4] = second compound 0.0316 µM, first compound 1 µM
[5] = second compound 0.0316 µM, first compound 3.16 µM
[6] = second compound 0.0316 µM, first compound 10 µM
[7] = second compound 0.1 µM, first compound 0.0316 µM
[8] = second compound 0.1 µM, first compound 0.1 µM
[9] = second compound 0.1 µM, first compound 0.316 µM
[10] = second compound 0.1 µM, first compound 1 µM
[11] = second compound 0.1 µM, first compound 3.16 µM
[12] = second compound 0.1 µM, first compound 10 µM
[13] = second compound 0.316 µM, first compound 0.0316 µM
[14] = second compound 0.316 µM, first compound 0.1 µM
[15] = second compound 0.316 µM, first compound 0.316 µM
[16] = second compound 0.316 µM, first compound 1 µM
[17] = second compound 0.316 µM, first compound 3.16 µM
[18] = second compound 0.316 µM, first compound 10 µM
[19] = second compound 1 µM, first compound 0.0316 µM
[20] = second compound 1 µM, first compound 0.1 µM
[21] = second compound 1 µM, first compound 0.316 µM
[22] = second compound 1 µM, first compound 1 µM
[23] = second compound 1 µM, first compound 3.16 µM
[24] = second compound 1 µM, first compound 10 µM
[25] = second compound 3.16 µM, first compound 0.0316 µM
[26] = second compound 3.16 µM, first compound 0.1 µM
[27] = second compound 3.16 µM, first compound 0.316 µM
[28] = second compound 3.16 µM, first compound 1 µM
[29] = second compound 3.16 µM, first compound 3.16 µM
[30] = second compound 3.16 µM, first compound 10 µM
[31] = second compound 10 µM, first compound 0.0316 µM
[32] = second compound 10 µM, first compound 0.1 µM
[33] = second compound 10 µM, first compound 0.316 µM
[34] = second compound 10 µM, first compound 1 µM
[35] = second compound 10 µM, first compound 3.16 µM
[36] = second compound 10 µM, first compound 10 µM
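Also: spheroids exposed to compounds for 7 days.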
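For viability, T/C in this document: 100% = DMSO vehicle control viability.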

In the case of `C#Cc1c(F)ccc2cc(O)cc(-c3ncc4c(N5CC6CCC(C5)N6)nc(OCC56CCCN5CC(F)C6)nc4c3F)c12` (stereo not drawn) + CN(C)c1ccc(Nc2c3ccc(NC(=O)CCN4CCCC4)cc3nc3cc(NC(=O)CCN4CCCC4)ccc23)cc1, the IC50 (second compound 0.0316 µM) is reported as over 10 µM, the IC50 (second compound 0.1 µM) is reported as over 10 µM and the IC50 (second compound 0.316 µM) is reported as over 10 µM. For the same molecule, the IC50 (second compound 1 µM) was over 10 µM, the IC50 (second compound 3.16 µM) was over 10 µM and the IC50 (second compound 10 µM) was over 10 µM. It also gave a viability, T/C [1] of 117%, a viability, T/C [2] of 100% and a viability, T/C [3] of 99.8%. The viability, T/C [4] was 70.8%, the viability, T/C [5] was 72% and the viability, T/C [6] was 99.5%. It also gave a viability, T/C [7] of 86.2%, a viability, T/C [8] of 85.3% and a viability, T/C [9] of 89.4%. For the same molecule, the viability, T/C [10] was 93.2%, the viability, T/C [11] was 70.2% and the viability, T/C [12] was 62.7%. For the same molecule, the viability, T/C [13] was 134%, the viability, T/C [14] was 87.8% and the viability, T/C [15] was 93.1%. It also gave a viability, T/C [16] of 77.3%, a viability, T/C [17] of 82.1% and a viability, T/C [18] of 77.6%. It also gave a viability, T/C [19] of 112%, a viability, T/C [20] of 97.4% and a viability, T/C [21] of 78.1%. The viability, T/C [22] was 66.2%, the viability, T/C [23] was 91.7% and the viability, T/C [24] was 62%. For the same molecule, the viability, T/C [25] was 92%, the viability, T/C [26] was 85.5% and the viability, T/C [27] was 118%. It also gave a viability, T/C [28] of 74.5%, a viability, T/C [29] of 72.9% and a viability, T/C [30] of 62.9%. The viability, T/C [31] was 66.9%, the viability, T/C [32] was 55% and the viability, T/C [33] was 77.8%. The viability, T/C [34] was 48.9%, the viability, T/C [35] was 89.3% and the viability, T/C [36] was 55.6%.

Work on `C=CCn1c(=O)c2cnc(Nc3ccc(N4CCN(C)CC4)cc3)nc2n1-c1cccc(C(C)(C)O)n1` + CN(C)c1ccc(Nc2c3ccc(NC(=O)CCN4CCCC4)cc3nc3cc(NC(=O)CCN4CCCC4)ccc23)cc1 yielded an IC50 (second compound 0.0316 µM) of over 10 µM, an IC50 (second compound 0.1 µM) of over 10 µM and an IC50 (second compound 0.316 µM) of over 10 µM. It also gave an IC50 (second compound 1 µM) of over 10 µM, an IC50 (second compound 3.16 µM) of over 10 µM and an IC50 (second compound 10 µM) of over 10 µM. For the same molecule, the viability, T/C [1] was 95.3%, the viability, T/C [2] was 120% and the viability, T/C [3] was 117%. It also gave a viability, T/C [4] of 83.3%, a viability, T/C [5] of 75.2% and a viability, T/C [6] of 120%. For the same molecule, the viability, T/C [7] was 150%, the viability, T/C [8] was 86.8% and the viability, T/C [9] was 92.5%. It also gave a viability, T/C [10] of 64.6%, a viability, T/C [11] of 88.4% and a viability, T/C [12] of 67.6%. It also gave a viability, T/C [13] of 112%, a viability, T/C [14] of 89.7% and a viability, T/C [15] of 88.9%. For the same molecule, the viability, T/C [16] was 63.8%, the viability, T/C [17] was 85.1% and the viability, T/C [18] was 104%. It also gave a viability, T/C [19] of 72.3%, a viability, T/C [20] of 74.7% and a viability, T/C [21] of 61.4%. The viability, T/C [22] was 65%, the viability, T/C [23] was 80.4% and the viability, T/C [24] was 80.2%. The viability, T/C [25] was 77.7%, the viability, T/C [26] was 62% and the viability, T/C [27] was 66.7%. It also gave a viability, T/C [28] of 67.6%, a viability, T/C [29] of 62.1% and a viability, T/C [30] of 91.1%. The viability, T/C [31] was 78%, the viability, T/C [32] was 63.8% and the viability, T/C [33] was 57.7%. For the same molecule, the viability, T/C [34] was 62%, the viability, T/C [35] was 89.3% and the viability, T/C [36] was 137%.

In the case of `COc1cccc2c1C(=O)c1c(O)c3c(c(O)c1C2=O)CC(O)(C(=O)CO)CC3OC1CC(N)C(O)C(C)O1` (stereo not drawn) + CN(C)c1ccc(Nc2c3ccc(NC(=O)CCN4CCCC4)cc3nc3cc(NC(=O)CCN4CCCC4)ccc23)cc1, the IC50 (second compound 0.0316 µM) is reported as over 10 µM, the IC50 (second compound 0.1 µM) is reported as over 10 µM and the IC50 (second compound 0.316 µM) is reported as over 10 µM. For the same molecule, the IC50 (second compound 1 µM) was 8.56 µM, the IC50 (second compound 3.16 µM) was over 10 µM and the IC50 (second compound 10 µM) was over 10 µM. It also gave a viability, T/C [1] of 80.7%, a viability, T/C [2] of 124% and a viability, T/C [3] of 97.7%. It also gave a viability, T/C [4] of 72%, a viability, T/C [5] of 71% and a viability, T/C [6] of 58.1%. The viability, T/C [7] was 90.6%, the viability, T/C [8] was 84.6% and the viability, T/C [9] was 104%. The viability, T/C [10] was 80.8%, the viability, T/C [11] was 60.5% and the viability, T/C [12] was 60.1%. The viability, T/C [13] was 88.4%, the viability, T/C [14] was 58.5% and the viability, T/C [15] was 79.7%. The viability, T/C [16] was 65.1%, the viability, T/C [17] was 62.2% and the viability, T/C [18] was 75.5%. The viability, T/C [19] was 85.5%, the viability, T/C [20] was 71.9% and the viability, T/C [21] was 56.4%. The viability, T/C [22] was 100%, the viability, T/C [23] was 65.2% and the viability, T/C [24] was 47.1%. It also gave a viability, T/C [25] of 74.9%, a viability, T/C [26] of 60.6% and a viability, T/C [27] of 80%. The viability, T/C [28] was 66.8%, the viability, T/C [29] was 63.2% and the viability, T/C [30] was 55.8%. It also gave a viability, T/C [31] of 57.1%, a viability, T/C [32] of 62.9% and a viability, T/C [33] of 57.1%. The viability, T/C [34] was 60.1%, the viability, T/C [35] was 50.3% and the viability, T/C [36] was 68.8%.

Molecule `COc1ncnc(C2CC2)c1-c1ncc2cnn(Cc3ccc(-c4nc(C(F)(F)F)cn4C(C)C)cc3)c2n1` + CN(C)c1ccc(Nc2c3ccc(NC(=O)CCN4CCCC4)cc3nc3cc(NC(=O)CCN4CCCC4)ccc23)cc1 has an IC50 (second compound 0.0316 µM) of over 10 µM, an IC50 (second compound 0.1 µM) of over 10 µM and an IC50 (second compound 0.316 µM) of over 10 µM. It also gave an IC50 (second compound 1 µM) of over 10 µM, an IC50 (second compound 3.16 µM) of over 10 µM and an IC50 (second compound 10 µM) of over 10 µM. It also gave a viability, T/C [1] of 120%, a viability, T/C [2] of 83% and a viability, T/C [3] of 103%. For the same molecule, the viability, T/C [4] was 89.3%, the viability, T/C [5] was 99.6% and the viability, T/C [6] was 115%. For the same molecule, the viability, T/C [7] was 93.4%, the viability, T/C [8] was 97.8% and the viability, T/C [9] was 102%. It also gave a viability, T/C [10] of 75.6%, a viability, T/C [11] of 91.4% and a viability, T/C [12] of 103%. The viability, T/C [13] was 86%, the viability, T/C [14] was 117% and the viability, T/C [15] was 116%. For the same molecule, the viability, T/C [16] was 76%, the viability, T/C [17] was 66.5% and the viability, T/C [18] was 84.9%. For the same molecule, the viability, T/C [19] was 85.1%, the viability, T/C [20] was 80.7% and the viability, T/C [21] was 67.5%. The viability, T/C [22] was 68%, the viability, T/C [23] was 73% and the viability, T/C [24] was 72.4%. For the same molecule, the viability, T/C [25] was 114%, the viability, T/C [26] was 79.7% and the viability, T/C [27] was 52.2%. It also gave a viability, T/C [28] of 56.6%, a viability, T/C [29] of 54% and a viability, T/C [30] of 69.8%. The viability, T/C [31] was 58.7%, the viability, T/C [32] was 53.3% and the viability, T/C [33] was 99.4%. For the same molecule, the viability, T/C [34] was 61.9%, the viability, T/C [35] was 51.7% and the viability, T/C [36] was 104%.
